We go through 4 compounds from patent US20040253224A1, “Mammalian mucinase, its recombinant production, and its use in therapy or prophylaxis against diseases in which mucus is involved or infectious diseases” (priority 2001, published 2004).

For series [1] the following is noted: cited from earlier work.
The format of series [2] is physicochemical. Conditions: for enzyme precipitated at 0.5% (w/v) TCA: 0.5% (w/v) trichloroacetic acid. The method, then:
Panel C: Precipitation by trichloroacetic acid (TCA). Purified recombinant human chitotriosidase and mouse AMCase were incubated with the indicated percentages of TCA. The amount of remaining enzyme activity after centrifugation is shown as a percentage of initial amounts.
(§1) The pH dependence of chitinase activity of AMCase was determined by incubating purified enzyme at a different pH (Mcllvaine buffer range 1.7-8.5) with 4-methylumbelliferyl substrates. Release of the fluorescent 4-metylumbelliferone was monitored fluorometrically (excitation […]).

Series [3] in a line: pH dependence of chitinase activity (McIlvaine buffer, 4-methylumbelliferyl substrates). Type of series: biochemical. Conditions: McIlvaine buffer range 1.7-8.5. The procedure: Panel A: pH activity profile of the different chitinases. The pH optima were determined by monitoring enzyme activity at the indicated pH in Mcllvaine buffer. Purified human recombinant chitotriosidase (closed lozenge), purified mouse AMCase (closed circle).
as §1

Series [4] in a line: stability on pre-incubation at acidic or basic pH. In kind it is physicochemical. The conditions noted are these: 30 minutes pre-incubation in McIlvaine buffer. The method, then: Panel B: Effects of acidic pre-incubation. Purified recombinant human chitotriosidase and mouse AMCase were pre-incubated for 30 minutes at the indicated pH in Mcllvaine buffer prior to enzyme activity measurement at the assay pH (see experimental procedures). Activity prior to incubation at the indicated pH is defined as 100%.
as §1

Series [5] is described as follows: chitin degradation products by FACE. In kind it is biochemical. Conditions: FACE analysis. The method, then:
FIG. 2. Degradation products with colloidal chitin as substrate. The FACE technique (described in experimental procedures) was used to visualize the cleavage products of recombinant human chitotriosidase and recombinant mouse AMCase using colloidal chitin as substrate. Lane 1, no enzyme added. Lane 2, products formed after incubation with 50 kDa recombinant human chitotriosidase with chitin. Lane 3, products formed with recombinant mouse AMCase and chitin. Lane 4, human chitotriosidase incubated without substrate. Lane 5, mouse AMCase incubated without substrate. Marker lane is indicated with M (sugar polymers are indicated on the right-hand side).
(§2) […]. […] Chitinase enzyme preparations were added in 3 μg/ml.

Series [6] concerns Candida albicans strain CAi-4 spheroplasts. Description: chitin content of cell wall of regenerating spheroplasts (Calcofluor white). Type of series: cell-based. Conditions: 3 μg per ml enzyme, 2 hours incubation. The procedure: as §2
In addition, the mouse acidic chitinase and chitotriosidase were both able to digest chitin in the cell wall of regenerating spheroplasts of Candida albicans. The chitin content of the cell wall was determined with the Calcofluor white stain. When regenerating cells were incubated for 2 hours with 3 μg per ml recombinant chitotriosidase or 3 μg per ml recombinant mouse acidic chitinase, the chitin content was reduced by 27% and 33%, respectively.

Series [7] can be described thus: expression of full-length cDNA in COS-1 cells, chitinolytic activity. Type of series: biochemical. Conditions: data not shown. An excerpt: These two sequences are most probably splice variants of the human acidic chitinase mRNA.
In series [8] the test system is submaxillary gland mucins. Description: viscosity and flow rate of mucin solution in vertical glass pipette. In kind it is biochemical. The text has this: The mammalian mucinase, endogenously present at mucosal surfaces in mammals, provides the solution for the above-mentioned problems concerning diseases in which mucus is involved. A mucinase of the invention is capable of cleaving mucus. In one embodiment, a specific mouse (nucleotide sequence SEQ ID NO:3 (see, Table III, below) and amino acid sequence SEQ ID NO:4 (see, Table IV, below)) and human mucinase (nucleotide sequence SEQ ID NO:2 (see, Table II, above) and amino acid sequence SEQ ID NO:1 (see, Table I, above) is provided, called AMCase. It has a catalytically active 39 kDa domain which is connected via a hinge region with a C-terminal mucin-binding domain. To show its mucus-degrading property, we have incubated a mixture of submaxillary gland mucins with recombinant 50 kDa AMCase. The effect of the incubation was examined by analysis with SDS-PAGE and silver staining. […] The flow rate of the mucin solution, as measured in a vertically positioned glass pipette, was increased with almost a factor of 2.

Series [9] is described as follows: specific activity of purified enzyme on 4MU-chitotrioside. Type of series: biochemical. The conditions noted are these: pH 5.2. The procedure: (§3) Chitin affinity chromatography was used to purify the enzyme. Detergent-free extracts of mouse tissues were prepared by homogenization in 10 volumes of potassium phosphate buffer pH 6.5, using an Ultra-turrax and centrifugation for 20 minutes at 15,000×g. The mouse intestine extract was adjusted to pH 5.0 by the addition of citric acid (0.2 M); NaCl was added to a final concentration of 2 M. A chitin column was prepared by mixing 10 grams swollen Sepharose G25 fine (Pharmacia, Uppsala, Sweden) with 300 mg of colloidal chitin (prepared as described by Shimahara et al. (Shimahara et al., 1988), followed by equilibration with phosphate-buffered saline (PBS) containing 2M NaCl. The extracts were applied onto the column with a flow speed of 0.4 ml/minute. After extensive washing, bound chitinase was eluted from the column with 8M urea, which was subsequently removed by dialysis. Protein concentrations were determined according to the method of Lowry et al. (Lowry et al 1951) using BSA as a standard. Fractions containing chitinase activity were subjected to SDS-PAGE and Western blotting as described (Renkema et al., 1995).
The specific activity of the purified enzyme was 3.9 nmol 4-methylumbelliferyl-chitotrioside hydrolyzed per mg per hour at pH 5.2, which is almost identical to that of human chitotriosidase.
as §2

The test system of series [10] is hyphae of Candida albicans. Description: incubation of hyphae with recombinant AMCase. Type of series: cell-based.
The nature of series [11]: resistance against proteases. Type of series: physicochemical.
Series [12] relates to Bovine submaxillary gland mucin. Briefly: degradation of mucin, SDS-PAGE and silver staining. Conditions: 125 μg mucin, 500 ng enzyme, 0.05M NaAc pH 5.0, overnight 37° C. In kind it is biochemical. The method, then: FIG. 7. The effect of AMCase on glycoproteins was studied by evaluating the effect of mouse AMCase on mucin, a type of glycoproteins expressed on mucosal surfaces in the airways and gastrointestinal tract. Bovine submaxillary gland mucin (Sigma) 125 μg was dissolved in 40 μl 0.05M NaAc pH 5.0 in the presence or absence of 500 ng mouse AMCase. After overnight incubation at 37° C., the mucin was electrophorized on an SDS-PAGE gel 7.5%, followed by silver staining.
The effect of AMCase on glycoproteins was studied by evaluating the effect of AMCase on mucin, a glycoprotein expressed on mucosal surfaces in the airways and gastrointestinal tract. Bovine submaxillary gland mucin (Sigma) 125 μg was dissolved in 40 μl 0.05M NaAc pH 5.0 in the presence or absence of 500 ng mouse AMCase. After overnight incubation at 37° C., the mucin was electrophorized on an SDS-PAGE gel (7.5% homogeneous, followed by silver staining). As is shown in FIG. 7, the mucin was degraded by treatment with the AMCase.

Series [13] can be described thus: binding to chitin particles. The procedure: as §3

As for `CC(=O)N[C@@H](CS)C(=O)O` [N-acetylcysteine], the “mucolytic activity in vitro” value in series [1] (in vitro) is reported as “has mucolytic activity in vitro”. The “mucolytic activity in vivo” value in [1] (in vivo) is on record as “has not been demonstrated convincingly in vivo”.
For the compound “chitotriosidase: human phagocyte chitinase, SEQ ID NO:10, used as comparator [reference compound]”, the “enzyme precipitated at 0.5% (w/v) TCA” value in series [2] stood at 58%. In [2] (2.5% (w/v) trichloroacetic acid), the “enzyme precipitated at 2.5% (w/v) TCA” value is on record as “all chitotriosidase precipitates”. Also, the “pH optimum (pronounced)” value in [3] is “only a broad pH optimum”. In addition, the “effect of pre-incubation at low pH on activity” value in series [4] is given as “completely inactivated”. In series [5], the “cleavage products released from chitin” value is listed as “releases mainly chitobioside fragments”. In [6], the “chitin content of cell wall reduced by” value is recorded as 27%.
Regarding “human AMCase: human acidic mammalian chitinase/mucinase, amino acid sequence SEQ ID NO:1”, the “chitinolytic activity of expressed protein” value in [7] is on record as “protein with chitinolytic activity”.
“mouse AMCase: acidic mammalian chitinase/mucinase of mouse, 50 kDa protein, amino acid sequence SEQ ID NO:4”: the “viscosity of the mucin solution after incubation” value in [8] is “markedly reduced”. Moreover, in series [8] (vertically positioned glass pipette), the “increase of flow rate of the mucin solution” value is given as around 2 factor. Moreover, the “specific activity of the purified enzyme” value in series [9] is 3.9 nmol 4-methylumbelliferyl-chit. For the same compound, in series [9] (listed as mouse acidic chitinase), the “specific activity of the purified enzyme” value was 3.9 nmol 4-methylumbelliferyl-chitotrioside hydrolyzed per mg per hour. Besides, in series [2], the “enzyme remaining unprecipitated at 2.5% (w/v) TCA” value amounted to 26% and the “enzyme precipitated at 0.5% (w/v) TCA” value is recorded as “remains in solution”. Besides, in series [3], the “less pronounced pH optimum” value stood at 4.7 pH and the “pH optimum (pronounced)” value was determined as 2.3 pH. Also, the “effect on hyphae (fungistatic effect)” value in series [10] was “selective lysis of the growing tip”. Further, in series [11], the resistance against proteases entry is “quite resistant against various proteases”. For the same compound, in series [12], the degradation of mucin entry is recorded as “degraded substantially”. Also, the degradation of mucin result in series [12] (listed as recombinant 50 kDa AMCase) is listed as “remarkable reduction in size of the mucins”. Besides, the “binding to chitin particles” value in series [13] is on record as “high affinity”. In addition, the “cleavage products released from chitin” value in [5] was “releases mainly chitobioside fragments”. In [6], the “chitin content of cell wall reduced by” value is 33%.
